Laboratory results reported in US10576062B2, “Carbamoyloxymethyl triazole cyclohexyl acids as LPA antagonists” (Bristol-Myers Squibb Company, priority 2016, dated 2020).
pIC50: −log10 of the molar value.

Target: T1, human LPA1 (Homo sapiens, UniProt Q92633)
T1 construct: expressed in transfected cells; host or cells: Chinese hamster ovary (CHO) cells
Test: LPA1 functional antagonist assay (LPA-induced calcium flux)
Format: cell-based
Conditions: CHO cells overexpressing human LPA1; inhibition of calcium flux induced by 10 nM LPA; read-out: hLPA1 IC50
Method in brief: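 CHO cells overexpressing human LPA1, loaded with calcium dye 30 min at 37° C, were preincubated 20 min at room temperature with compound (0.08 nM–5 μM, 0.5% DMSO) in HBSS/20 mM HEPES/0.1% fatty acid-free BSA.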

T1 sequence (Q92633 whole entry): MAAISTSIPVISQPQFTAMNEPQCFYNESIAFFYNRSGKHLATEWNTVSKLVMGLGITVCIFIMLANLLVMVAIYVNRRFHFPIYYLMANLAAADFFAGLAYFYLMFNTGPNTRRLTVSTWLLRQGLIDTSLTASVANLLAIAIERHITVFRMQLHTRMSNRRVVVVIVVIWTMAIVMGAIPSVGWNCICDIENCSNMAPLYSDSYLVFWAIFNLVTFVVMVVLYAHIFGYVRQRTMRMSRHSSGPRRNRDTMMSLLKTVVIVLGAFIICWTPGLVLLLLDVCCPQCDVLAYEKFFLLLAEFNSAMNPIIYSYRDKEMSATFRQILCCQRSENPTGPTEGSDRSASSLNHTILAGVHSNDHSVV

| SMILES | pIC50 |
| --- | --- |
| CCc1nc(-c2nnn(C)c2COC(=O)N(C)C23CC(C2)C3)ccc1O[C@H]1CCC[C@H](C(=O)O)C1 [Example 206, (1S,3S)-3-((6-(5-(((bicyclo[1.1.1]pentan-1-yl(methyl)carbamoyl)oxy)methyl)-1-methyl-1H-1,2,3-triazol-4-yl)-2-ethylpyridin-3-yl)oxy)cyclohexane-1-carboxylic acid] | 7.47 |
| CCCC1(N(C)C(=O)OCc2c(-c3ccc(O[C@H]4CCC[C@H](C(=O)O)C4)c(CC)n3)nnn2C)CC1 [Example 207, (1S,3S)-3-((2-ethyl-6-(1-methyl-5-(((methyl(1-propylcyclopropyl)carbamoyl)oxy)methyl)-1H-1,2,3-triazol-4-yl)pyridin-3-yl)oxy)cyclohexane-1-carboxylic acid] | 6.88 |
| CCc1nc(-c2nnn(C)c2COC(=O)N(C)CCC(C)C)ccc1O[C@H]1CCC[C@H](C(=O)O)C1 [Example 208, (1S,3S)-3-((2-ethyl-6-(5-(((isopentyl(methyl)carbamoyl)oxy)methyl)-1-methyl-1H-1,2,3-triazol-4-yl)pyridin-3-yl)oxy)cyclohexane-1-carboxylic acid] | 7.59 |
| CCc1nc(-c2nnn(C)c2COC(=O)N(C)CCC2CC2)ccc1O[C@H]1CCC[C@H](C(=O)O)C1 [Example 209, (1S,3S)-3-((6-(5-((((2-cyclopropylethyl)(methyl)carbamoyl)oxy)methyl)-1-methyl-1H-1,2,3-triazol-4-yl)-2-ethylpyridin-3-yl)oxy)cyclohexane-1-carboxylic acid] | 7.66 |
| CCc1nc(-c2nnn(C)c2COC(=O)N2CC3(CCC3)C2)ccc1O[C@H]1CCC[C@H](C(=O)O)C1 [Example 210, (1S,3S)-3-((6-(5-(((2-azaspiro[3.3]heptane-2-carbonyl)oxy)methyl)-1-methyl-1H-1,2,3-triazol-4-yl)-2-ethylpyridin-3-yl)oxy)cyclohexane-1-carboxylic acid] | 7.17 |
| CCc1nc(-c2nnn(C)c2COC(=O)N2CCC3(CC3)C2)ccc1O[C@H]1CCC[C@H](C(=O)O)C1 [Example 211, (1S,3S)-3-((6-(5-(((5-azaspiro[2.4]heptane-5-carbonyl)oxy)methyl)-1-methyl-1H-1,2,3-triazol-4-yl)-2-ethylpyridin-3-yl)oxy)cyclohexane-1-carboxylic acid] | 7.33 |
| CCCCN(C)C(=O)OCc1c(-c2cnc(O[C@H]3CCC[C@H](C(=O)O)C3)cn2)nnn1C [Example 212, (1S,3S)-3-((5-(5-(((butyl(methyl)carbamoyl)oxy)methyl)-1-methyl-1H-1,2,3-triazol-4-yl)pyrazin-2-yl)oxy)cyclohexane-1-carboxylic acid] | 7.40 |
| CN(CC1CC1)C(=O)OCc1c(-c2cnc(O[C@H]3CCC[C@H](C(=O)O)C3)cn2)nnn1C [Example 213, (1S,3S)-3-((5-(5-((((cyclopropylmethyl)(methyl)carbamoyl)oxy)methyl)-1-methyl-1H-1,2,3-triazol-4-yl)pyrazin-2-yl)oxy)cyclohexane-1-carboxylic acid] | 5.97 |
| CN(CC1CCC1)C(=O)OCc1c(-c2cnc(O[C@H]3CCC[C@H](C(=O)O)C3)cn2)nnn1C [Example 214, (1S,3S)-3-((5-(5-((((cyclobutylmethyl)(methyl)carbamoyl)oxy)methyl)-1-methyl-1H-1,2,3-triazol-4-yl)pyrazin-2-yl)oxy)cyclohexane-1-carboxylic acid] | 7.17 |
| CN(C(=O)OCc1c(-c2cnc(O[C@H]3CCC[C@H](C(=O)O)C3)cn2)nnn1C)C1CCCC1 [Example 215, (1S,3S)-3-((5-(5-(((cyclopentyl(methyl)carbamoyl)oxy)methyl)-1-methyl-1H-1,2,3-triazol-4-yl)pyrazin-2-yl)oxy)cyclohexane-1-carboxylic acid] | 7.08 |
| CCCN(C)C(=O)OCc1c(-c2cnc(O[C@H]3CCC[C@H](C(=O)O)C3)c(C)n2)nnn1C [Example 218, (1S,3S)-3-((3-methyl-5-(1-methyl-5-(((methyl(propyl)carbamoyl)oxy)methyl)-1H-1,2,3-triazol-4-yl)pyrazin-2-yl)oxy)cyclohexane-1-carboxylic Acid] | 6.71 |
| CCCCN(C)C(=O)OCc1c(-c2cnc(O[C@H]3CCC[C@H](C(=O)O)C3)c(C)n2)nnn1C [Example 219, (1S,3S)-3-((5-(5-(((butyl(methyl)carbamoyl)oxy)methyl)-1-methyl-1H-1,2,3-triazol-4-yl)-3-methylpyrazin-2-yl)oxy)cyclohexane-1-carboxylic acid] | 7.68 |
| Cc1nc(-c2nnn(C)c2COC(=O)N(C)CC2CC2)cnc1O[C@H]1CCC[C@H](C(=O)O)C1 [Example 220, (1S,3S)-3-((5-(5-((((cyclopropyl-methyl)(methyl)carbamoyl)oxy)methyl)-1-methyl-1H-1,2,3-triazol-4-yl)-3-methyl-pyrazin-2-yl)oxy)cyclohexane-1-carboxylic acid] | 6.83 |
| Cc1nc(-c2nnn(C)c2COC(=O)N(C)CCC(C)C)cnc1O[C@H]1CCC[C@H](C(=O)O)C1 [Example 222, (1S,3S)-3-((5-(5-(((isopentyl(methyl)carbamoyl)oxy)methyl)-1-methyl-1H-1,2,3-triazol-4-yl)-3-methylpyrazin-2-yl)oxy)cyclohexane-1-carboxylic acid] | 7.72 |
| CCCCCN(C)C(=O)OCc1c(-c2cnc(O[C@H]3CCC[C@H](C(=O)O)C3)c(C)n2)nnn1C [Example 223, (1S,3S)-3-((3-methyl-5-(1-methyl-5-(((methyl(pentyl)carbamoyl)oxy)methyl)-1H-1,2,3-triazol-4-yl)pyrazin-2-yl)oxy)cyclohexane-1-carboxylic acid] | 7.25 |
| Cc1nc(-c2nnn(C)c2COC(=O)N(C)CC(C)C)cnc1O[C@H]1CCC[C@H](C(=O)O)C1 [Example 224, (1S,3S)-3-((5-(5-(((isobutyl(methyl)carbamoyl)oxy)methyl)-1-methyl-1H-1,2,3-triazol-4-yl)-3-methylpyrazin-2-yl)oxy)cyclohexane-1-carboxylic acid] | 6.92 |

The remaining lines, values ahead:

| pIC50 | SMILES |
| --- | --- |
| 7.15 | Cc1nc(-c2nnn(C)c2COC(=O)N(C)CCC2CC2)cnc1O[C@H]1CCC[C@H](C(=O)O)C1 [Example 225, (1S,3S)-3-((5-(5-((((2-cyclopropylethyl)(methyl)carbamoyl)oxy)methyl)-1-methyl-1H-1,2,3-triazol-4-yl)-3-methylpyrazin-2-yl)oxy)cyclohexane-1-carboxylic acid] |
| 7.31 | Cc1nc(-c2nnn(C)c2COC(=O)N(C)C2CCCC2)cnc1O[C@H]1CCC[C@H](C(=O)O)C1 [Example 226, (1S,3S)-3-((5-(5-(((cyclopentyl(methyl)carbamoyl)oxy)methyl)-1-methyl-1H-1,2,3-triazol-4-yl)-3-methylpyrazin-2-yl)oxy)cyclohexane-1-carboxylic acid] |
| 7.74 | Cc1nc(-c2nnn(C)c2COC(=O)N(C)CC2CCCC2)cnc1O[C@H]1CCC[C@H](C(=O)O)C1 [Example 227, (1S,3S)-3-((5-(5-((((cyclopentylmethyl)(methyl)carbamoyl)oxy)methyl)-1-methyl-1H-1,2,3-triazol-4-yl)-3-methylpyrazin-2-yl)oxy)cyclohexane-1-carboxylic acid] |
| 7.22 | Cc1nc(-c2nnn(C)c2COC(=O)N(C)Cc2ccccc2)cnc1O[C@H]1CCC[C@H](C(=O)O)C1 [Example 228, (1S,3S)-3-((5-(5-(((benzyl(methyl)carbamoyl)oxy)methyl)-1-methyl-1H-1,2,3-triazol-4-yl)-3-methylpyrazin-2-yl)oxy)cyclohexane-1-carboxylic acid] |
| 7.12 | Cc1nc(-c2nnn(C)c2COC(=O)N(C)C2CCC2)cnc1O[C@H]1CCC[C@H](C(=O)O)C1 [Example 229, (1S,3S)-3-((5-(5-(((cyclobutyl(methyl)carbamoyl)oxy)methyl)-1-methyl-1H-1,2,3-triazol-4-yl)-3-methylpyrazin-2-yl)oxy)cyclohexane-1-carboxylic acid] |
| 6.41 | Cc1nc(-c2nnn(C)c2COC(=O)N(C)CCCF)cnc1O[C@H]1CCC[C@H](C(=O)O)C1 [Example 230, (1S,3S)-3-((5-(5-((((3-fluoropropyl)(methyl)carbamoyl)oxy)methyl)-1-methyl-1H-1,2,3-triazol-4-yl)-3-methylpyrazin-2-yl)oxy)cyclohexane-1-carboxylic acid] |
| 7.06 | Cc1nc(-c2nnn(C)c2COC(=O)N(C)CC(C)(C)C)cnc1O[C@H]1CCC[C@H](C(=O)O)C1 [Example 231, (1S,3S)-3-((3-methyl-5-(1-methyl-5-(((methyl(neopentyl)carbamoyl)oxy)methyl)-1H-1,2,3-triazol-4-yl)pyrazin-2-yl)oxy)cyclohexane-1-carboxylic acid] |
| 6.72 | Cc1nc(-c2nnn(C)c2COC(=O)N(C)CC(C)(C)F)cnc1O[C@H]1CCC[C@H](C(=O)O)C1 [Example 232, (1S,3S)-3-((5-(5-((((2-fluoro-2-methylpropyl)(methyl)carbamoyl)oxy)methyl)-1-methyl-1H-1,2,3-triazol-4-yl)-3-methylpyrazin-2-yl)oxy)cyclohexane-1-carboxylic acid] |
| 6.91 | Cc1nc(-c2nnn(C)c2COC(=O)N(C)CC2(F)CCC2)cnc1O[C@H]1CCC[C@H](C(=O)O)C1 [Example 233, (1S,3S)-3-((5-(5-(((((1-fluoro-cyclobutyl)methyl)(methyl)carbamoyl)oxy)methyl)-1-methyl-1H-1,2,3-triazol-4-yl)-3-methylpyrazin-2-yl)oxy)cyclohexane-1-carboxylic acid] |
| 7.14 | Cc1nc(-c2nnn(C)c2COC(=O)N(C)CC2(F)CCCC2)cnc1O[C@H]1CCC[C@H](C(=O)O)C1 [Example 234, (1S,3S)-3-((5-(5-(((((1-fluorocyclopentyl)methyl)(methyl)carbamoyl)oxy)methyl)-1-methyl-1H-1,2,3-triazol-4-yl)-3-methylpyrazin-2-yl)oxy)cyclohexane-1-carboxylic acid] |
